These results are taken from ChEMBL document CHEMBL4152284, “Novel tetrahydrocarbazole benzyl pyridine hybrids as potent and selective butryl cholinesterase inhibitors with neuroprotective and β-secretase inhibition activities” (Eur J Med Chem, 2018).

As usually defined, the IC50 is the midpoint of a concentration-inhibition curve. The term Ki denotes the equilibrium dissociation constant of an inhibitor or competing ligand from its target. A word on the inhibition: it is how much of the control response was suppressed.

Assay [1] can be described thus: Selectivity index, ratio of IC50 for Torpedo californica AChE to IC50 for equine serum BChE.
Assay [2] deals with T1, Acetylcholinesterase (Torpedo californica, UniProt P04058). The experiment in a line: Inhibition of Torpedo californica AChE using acetylthiocholine iodide as substrate preincubated for 10 mins followed by substrate addition measured for 5 mins by Ellman's method. It is filed as single protein, Tetronarce californica. Background: DTNB colorimetry detects thiols as they appear.

Assay [3] addresses T2, Cholinesterase (Equus caballus, UniProt P81908). The experiment in a line: Inhibition of equine serum BChE using butyrylthiocholine iodide as substrate preincubated for 10 mins followed by substrate addition measured for 5 mins by Ellman's method.
Assay [4] has as its target T3, Acetylcholinesterase (Electrophorus electricus, UniProt O42275). The experiment in a line: Inhibition of electric eel AChE using acetylthiocholine iodide as substrate preincubated for 10 mins followed by substrate addition measured for 6 mins by Ellman's method.
In assay [5] the target is T2, Cholinesterase. The experiment in a line: Inhibition of equine serum BChE using butyrylthiocholine iodide as substrate preincubated for 10 mins followed by substrate addition measured for 6 mins by Ellman's method.
The nature of assay [6]: Selectivity index, ratio of IC50 for electric eel AChE to IC50 for equine serum BChE.
Assay [7] deals with T1, Acetylcholinesterase. The experiment in a line: Inhibition of Torpedo californica AChE using acetylthiocholine iodide as substrate preincubated for 15 mins followed by substrate addition by Ellman's method. On the set-up: species or system Tetronarce californica.
The target of assay [8] is T2, Cholinesterase. In words: Inhibition of equine serum BChE using butyrylthiocholine iodide as substrate preincubated for 15 mins followed by substrate addition by Ellman's method.
In assay [9] the target is T3, Acetylcholinesterase. The experiment in a line: Inhibition of electric eel AChE using acetylthiocholine iodide as substrate preincubated for 15 mins followed by substrate addition measured after 15 mins by Ellman's method.
The target in assay [10] is T2, Cholinesterase. In words: Inhibition of equine serum BChE using butyrylthiocholine iodide as substrate preincubated for 15 mins followed by substrate addition measured after 15 mins by Ellman's method.
Assay [11] has as its target T2, Cholinesterase. In words: Mixed-type inhibition of equine serum BChE using varying levels of butyrylthiocholine iodide as substrate by Lineweaver-burk plot analysis.
The target of assay [12] is Cholinesterase (Homo sapiens) (UniProt P06276). The experiment in a line: Inhibition of human BchE (unknown origin)-induced amyloid beta (1 to 42) aggregation at 10 uM after 48 hrs by thioflavin T fluorescence method relative to control.
For assay [13], the target named is Beta-secretase 1 (Homo sapiens) (UniProt P56817). The experiment in a line: Inhibition of recombinant human BACE1 (1 to 460 residues) expressed in baculovirus-infected insect cells at 50 uM using Rh-EVNLDAEFK-quencher as substrate measured after 90 mins by fluorescence assay relative to control.
The target of assay [14] is Amyloid-beta precursor protein (Homo sapiens) (UniProt P05067). In words: Inhibition of HFIP-pretreated amyloid beta (1 to 42) (unknown origin) self-induced aggregation at 10 uM after 48 hrs by thioflavin-T fluorescence assay relative to control.
Assay [15] addresses Beta-secretase 1 (Homo sapiens) (UniProt P56817). In words: Inhibition of recombinant human BACE1 (1 to 460 residues) expressed in baculovirus-infected insect cells at 10 uM using Rh-EVNLDAEFK-quencher as substrate measured after 90 mins by fluorescence assay relative to control.
In another assay the test system is PC-12. The experiment in a line: Neuroprotective activity against H2O2-induced cell death in rat PC12 cells assessed as cell viability at 10 uM pretreated for 3 hrs followed by H2O2 addition and measured after 12 hrs by MTT assay relative to control. It counts as functional. Particulars: read-out: Activity.
The target of assay [16] is Cholinesterase (Equus caballus) (UniProt P81908). The experiment in a line: Potency index, ratio of donepezil IC50 to test compound IC50 for equine serum BChE.

Molecules are shown by their SMILES.

T1 sequence (P04058 whole entry): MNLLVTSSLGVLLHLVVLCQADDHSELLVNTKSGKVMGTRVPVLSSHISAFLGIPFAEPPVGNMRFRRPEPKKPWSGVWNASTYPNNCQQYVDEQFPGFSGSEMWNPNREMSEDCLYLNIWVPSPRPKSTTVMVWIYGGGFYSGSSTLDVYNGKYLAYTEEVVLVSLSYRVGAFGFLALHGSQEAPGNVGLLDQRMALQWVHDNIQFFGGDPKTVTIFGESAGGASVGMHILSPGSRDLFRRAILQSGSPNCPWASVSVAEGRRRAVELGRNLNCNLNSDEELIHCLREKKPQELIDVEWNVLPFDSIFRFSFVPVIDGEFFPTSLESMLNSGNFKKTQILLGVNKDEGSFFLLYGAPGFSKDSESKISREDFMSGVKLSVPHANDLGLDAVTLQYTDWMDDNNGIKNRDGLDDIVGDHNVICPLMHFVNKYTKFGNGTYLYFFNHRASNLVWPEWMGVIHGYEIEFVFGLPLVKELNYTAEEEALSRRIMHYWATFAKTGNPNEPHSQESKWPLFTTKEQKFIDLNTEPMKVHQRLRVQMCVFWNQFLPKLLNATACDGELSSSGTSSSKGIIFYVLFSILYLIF
T2 sequence (P81908 whole entry): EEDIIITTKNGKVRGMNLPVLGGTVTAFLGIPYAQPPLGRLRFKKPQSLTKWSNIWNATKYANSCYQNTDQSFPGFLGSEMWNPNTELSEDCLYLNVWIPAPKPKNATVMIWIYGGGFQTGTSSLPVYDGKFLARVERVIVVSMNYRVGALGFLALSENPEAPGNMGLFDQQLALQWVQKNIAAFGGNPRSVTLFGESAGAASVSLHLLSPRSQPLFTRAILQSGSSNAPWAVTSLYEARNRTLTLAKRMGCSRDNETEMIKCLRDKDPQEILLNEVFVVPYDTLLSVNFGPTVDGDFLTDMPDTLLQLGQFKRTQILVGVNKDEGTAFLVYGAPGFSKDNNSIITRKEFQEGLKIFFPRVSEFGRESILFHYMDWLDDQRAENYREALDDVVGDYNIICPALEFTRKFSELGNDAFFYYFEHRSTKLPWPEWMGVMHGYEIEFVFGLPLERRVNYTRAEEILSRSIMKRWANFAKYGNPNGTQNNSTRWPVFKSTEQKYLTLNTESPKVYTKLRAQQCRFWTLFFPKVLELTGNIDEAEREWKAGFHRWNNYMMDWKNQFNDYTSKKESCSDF
Beta-secretase 1 (Homo sapiens), sequence (P56817 whole entry, the tested form may be a part): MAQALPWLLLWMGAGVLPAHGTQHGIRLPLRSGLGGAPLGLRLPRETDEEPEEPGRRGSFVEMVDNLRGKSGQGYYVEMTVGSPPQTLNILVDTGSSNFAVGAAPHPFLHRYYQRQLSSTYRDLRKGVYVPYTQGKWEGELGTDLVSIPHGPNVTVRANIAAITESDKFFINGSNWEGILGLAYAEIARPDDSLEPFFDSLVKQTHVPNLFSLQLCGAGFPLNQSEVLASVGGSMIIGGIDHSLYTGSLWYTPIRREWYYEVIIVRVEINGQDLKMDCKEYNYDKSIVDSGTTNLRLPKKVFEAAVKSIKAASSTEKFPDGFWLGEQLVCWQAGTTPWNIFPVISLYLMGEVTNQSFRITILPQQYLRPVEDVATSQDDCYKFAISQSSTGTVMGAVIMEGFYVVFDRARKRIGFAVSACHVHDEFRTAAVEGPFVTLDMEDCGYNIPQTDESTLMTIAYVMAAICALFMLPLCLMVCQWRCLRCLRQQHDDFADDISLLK
T3 sequence (O42275 whole entry): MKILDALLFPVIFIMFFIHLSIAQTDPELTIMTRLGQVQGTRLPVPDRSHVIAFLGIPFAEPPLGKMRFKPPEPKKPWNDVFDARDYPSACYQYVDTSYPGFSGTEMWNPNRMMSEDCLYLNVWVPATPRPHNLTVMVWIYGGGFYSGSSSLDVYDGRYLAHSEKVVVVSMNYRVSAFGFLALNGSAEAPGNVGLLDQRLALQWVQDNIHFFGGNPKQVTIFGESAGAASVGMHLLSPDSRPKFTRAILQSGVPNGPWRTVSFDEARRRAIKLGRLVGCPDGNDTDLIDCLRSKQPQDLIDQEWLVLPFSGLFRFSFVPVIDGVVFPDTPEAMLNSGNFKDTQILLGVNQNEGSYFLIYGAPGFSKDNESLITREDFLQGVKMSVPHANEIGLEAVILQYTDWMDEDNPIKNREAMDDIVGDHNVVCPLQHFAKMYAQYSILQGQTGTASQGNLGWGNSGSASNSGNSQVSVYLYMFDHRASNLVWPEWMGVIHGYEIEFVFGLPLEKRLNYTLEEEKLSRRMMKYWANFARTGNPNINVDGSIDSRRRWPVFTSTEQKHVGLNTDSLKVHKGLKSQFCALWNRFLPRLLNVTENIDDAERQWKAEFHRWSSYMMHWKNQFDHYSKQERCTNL
Cholinesterase (Homo sapiens), sequence (P06276 whole entry, the tested form may be a part): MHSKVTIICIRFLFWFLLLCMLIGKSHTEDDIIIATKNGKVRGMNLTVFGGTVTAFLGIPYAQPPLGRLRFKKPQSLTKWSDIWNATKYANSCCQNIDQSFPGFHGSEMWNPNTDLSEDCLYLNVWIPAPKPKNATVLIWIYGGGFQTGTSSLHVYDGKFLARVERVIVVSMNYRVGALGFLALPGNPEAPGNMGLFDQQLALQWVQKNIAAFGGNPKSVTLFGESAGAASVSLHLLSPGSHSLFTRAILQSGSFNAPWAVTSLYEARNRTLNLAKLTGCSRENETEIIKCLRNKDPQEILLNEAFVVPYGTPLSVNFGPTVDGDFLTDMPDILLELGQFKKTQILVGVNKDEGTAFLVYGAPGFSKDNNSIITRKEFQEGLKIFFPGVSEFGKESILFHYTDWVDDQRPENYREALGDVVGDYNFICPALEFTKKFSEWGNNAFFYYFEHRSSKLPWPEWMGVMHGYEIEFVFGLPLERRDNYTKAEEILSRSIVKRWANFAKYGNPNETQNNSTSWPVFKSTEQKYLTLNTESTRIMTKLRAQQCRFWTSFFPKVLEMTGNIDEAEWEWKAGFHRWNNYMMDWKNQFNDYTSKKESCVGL
Amyloid-beta precursor protein (Homo sapiens), sequence (P05067 whole entry, the tested form may be a part): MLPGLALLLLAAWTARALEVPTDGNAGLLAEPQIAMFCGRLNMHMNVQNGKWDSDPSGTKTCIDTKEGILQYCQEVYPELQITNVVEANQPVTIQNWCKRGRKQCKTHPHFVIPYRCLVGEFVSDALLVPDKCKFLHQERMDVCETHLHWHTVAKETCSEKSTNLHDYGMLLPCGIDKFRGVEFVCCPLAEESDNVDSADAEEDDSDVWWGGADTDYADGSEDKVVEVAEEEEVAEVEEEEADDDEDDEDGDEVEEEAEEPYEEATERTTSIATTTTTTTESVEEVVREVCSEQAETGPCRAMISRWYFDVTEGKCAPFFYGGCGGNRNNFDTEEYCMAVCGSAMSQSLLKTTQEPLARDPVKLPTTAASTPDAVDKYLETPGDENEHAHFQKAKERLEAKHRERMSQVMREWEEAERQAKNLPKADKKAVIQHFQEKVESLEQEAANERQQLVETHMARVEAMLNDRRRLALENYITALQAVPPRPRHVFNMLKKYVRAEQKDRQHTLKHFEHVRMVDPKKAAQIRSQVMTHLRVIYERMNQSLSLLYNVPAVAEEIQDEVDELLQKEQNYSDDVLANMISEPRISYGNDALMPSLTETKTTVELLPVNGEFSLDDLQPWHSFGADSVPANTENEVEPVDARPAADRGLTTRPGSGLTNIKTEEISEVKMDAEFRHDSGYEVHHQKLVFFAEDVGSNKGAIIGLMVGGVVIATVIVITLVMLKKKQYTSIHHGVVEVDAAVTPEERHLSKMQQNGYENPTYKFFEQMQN
Cholinesterase (Equus caballus), sequence (P81908 whole entry): as the sequence (P81908 whole entry) above

As to `Fc1ccc(C[n+]2cccc(Cn3c4c(c5ccccc53)CCCC4)c2)cc1`, the Ratio IC50 in assay [1] was 138. Besides, the IC50 at Acetylcholinesterase [2] was determined as 71.7 µM; at Cholinesterase [3] it was 0.52 µM.

In the case of `O=C1Nc2ccccc2/C1=C\c1cc[n+](Cc2ccccc2Cl)cc1`, the IC50 against Acetylcholinesterase [4] stood at 0.0004 µM; at Cholinesterase [5] it was 1370 µM. Moreover, the Ratio IC50 in assay [6] came out at 3110.

`O=C1c2ccccc2C(=O)N1Cc1cc[n+](Cc2ccccc2F)cc1`: the Ratio IC50 in [1] stood at 11.3. Also, the half-inhibitory concentration (IC50) turned out to be 0.77 µM against Acetylcholinesterase [7] and 8.71 µM against Cholinesterase [8].

In the case of `Fc1cccc(C[n+]2cccc(Cn3c4c(c5ccccc53)CCCC4)c2)c1`, in [1], the Ratio IC50 came to 138. The results for the IC50 against Acetylcholinesterase [2] and on Cholinesterase [3] were 77.1 µM and 0.56 µM, respectively.

With `Clc1cccc(C[n+]2ccc(Cn3c4c(c5ccccc53)CCCC4)cc2)c1`, in assay [1], the Ratio IC50 stood at 18.5. In addition, the IC50 against Acetylcholinesterase [2] amounted to 4.8 µM; on Cholinesterase [3] it was 0.26 µM.

As for `Clc1ccc(C[n+]2ccc(Cn3c4c(c5ccccc53)CCCC4)cc2)cc1`, the Ratio IC50 in assay [1] was found to be 12.2. For the same compound, the IC50 against Acetylcholinesterase [2] is 25.6 µM; at Cholinesterase [3] it was 2.1 µM.

Turning to `O=C1CCC(=O)N1Cc1cc[n+](Cc2cccc(F)c2)cc1`, the Ratio IC50 in assay [1] worked out at 6.34. Also, the IC50 against Acetylcholinesterase [7] worked out at 7.19 µM; at Cholinesterase [8] it was 45.6 µM.

Consider `Clc1ccccc1C[n+]1ccc(Cn2c3c(c4ccccc42)CCCC3)cc1`, for which the Ratio IC50 in assay [1] was found to be 22.4. Moreover, the values for the IC50 against Acetylcholinesterase [2] and against Cholinesterase [3] were 6.5 µM and 0.29 µM, respectively.

As for `c1ccc(C[n+]2ccc(Cn3c4c(c5ccccc53)CCCC4)cc2)cc1`, in [1], the Ratio IC50 was found to be 62.6. In addition, the IC50 against Acetylcholinesterase [2] was found to be 30 µM; on Cholinesterase [3], 0.48 µM.

`O=C(NCc1cc[n+](Cc2cccc(F)c2)cc1)c1cc2ccccc2oc1=O`: the IC50 at Acetylcholinesterase [9] turned out to be 10.1 µM; against Cholinesterase [10], 12.2 µM. In addition, the Ratio IC50 in assay [6] is 0.83.

Consider `Fc1ccccc1C[n+]1cccc(Cn2c3c(c4ccccc42)CCCC3)c1`, for which, in assay [1], the Ratio IC50 was 133. The figures for the IC50 against Acetylcholinesterase [2] and against Cholinesterase [3] were 67.7 µM and 0.51 µM, respectively.

Regarding `Clc1cccc(C[n+]2cccc(Cn3c4c(c5ccccc53)CCCC4)c2)c1`, the Ratio IC50 in assay [1] was found to be 120. Moreover, the IC50 is 30 µM against Acetylcholinesterase [2] and 0.25 µM on Cholinesterase [3].

Turning to `Clc1ccccc1C[n+]1cccc(Cn2c3c(c4ccccc42)CCCC3)c1`, the Ratio IC50 in assay [1] came out at 180. In addition, the figures for the IC50 against Acetylcholinesterase [2] and on Cholinesterase [3] were 36.1 µM and 0.2 µM, respectively.

With `Fc1cccc(C[n+]2ccc(Cn3c4c(c5ccccc53)CCCC4)cc2)c1`, the Ratio IC50 in assay [1] is 35. Further, the IC50 at Acetylcholinesterase [2] worked out at 34.3 µM; at Cholinesterase [3], 0.98 µM.

Consider `Clc1ccc(C[n+]2cccc(Cn3c4c(c5ccccc53)CCCC4)c2)cc1`, for which, in assay [1], the Ratio IC50 stood at 124. In addition, the IC50 was determined as 27.3 µM at Acetylcholinesterase [2] and 0.22 µM at Cholinesterase [3].

As to `Cc1ccc(C[n+]2cccc(Cn3c4c(c5ccccc53)CCCC4)c2)cc1`, the Ratio IC50 in assay [1] came to 181; in assay [16], 3.97. This compound displayed a Ki on Cholinesterase [11] of 0.09 µM. The inhibition stood at 51.8% in assay [12], 30% in assay [13], 55.7% in assay [14] and 10% in assay [15]. The values for the half-inhibitory concentration (IC50) against Acetylcholinesterase [2] and against Cholinesterase [3] were 15.9 µM and 0.088 µM, respectively. Further, the viability at 10 µM with PC-12 was found to be 65%.

Turning to `Cc1cccc(C[n+]2cccc(Cn3c4c(c5ccccc53)CCCC4)c2)c1`, in assay [1], the Ratio IC50 came to 153. The values for the IC50 on Acetylcholinesterase [2] and against Cholinesterase [3] were 16.8 µM and 0.11 µM, respectively.

As to `Cc1ccc(C[n+]2ccc(Cn3c4c(c5ccccc53)CCCC4)cc2)cc1`, the Ratio IC50 in [1] was 20. Further, the results for the IC50 on Acetylcholinesterase [2] and against Cholinesterase [3] were 14 µM and 0.7 µM, respectively.

Regarding `Fc1ccc(C[n+]2ccc(Cn3c4c(c5ccccc53)CCCC4)cc2)cc1`, in assay [1], the Ratio IC50 was 44.9. The values for the IC50 at Acetylcholinesterase [2] and against Cholinesterase [3] were 32.8 µM and 0.73 µM, respectively.

As for `Cc1ccccc1C[n+]1ccc(Cn2c3c(c4ccccc42)CCCC3)cc1`, the Ratio IC50 in assay [1] was 21. The 50% inhibitory concentration (IC50) against Acetylcholinesterase [2] stood at 8.4 µM; against Cholinesterase [3] it was 0.4 µM.

Take `Cc1ccccc1C[n+]1cccc(Cn2c3c(c4ccccc42)CCCC3)c1`: the Ratio IC50 in assay [1] came out at 124. Moreover, the values for the half-maximal inhibitory concentration (IC50) at Acetylcholinesterase [2] and on Cholinesterase [3] were 47 µM and 0.38 µM, respectively.

Regarding `Fc1ccccc1C[n+]1ccc(Cn2c3c(c4ccccc42)CCCC3)cc1`, the Ratio IC50 in assay [1] was 47.6. Besides, the figures for the IC50 at Acetylcholinesterase [2] and against Cholinesterase [3] were 30 µM and 0.63 µM, respectively.

As for `Cc1cccc(C[n+]2ccc(Cn3c4c(c5ccccc53)CCCC4)cc2)c1`, in assay [1], the Ratio IC50 came to 21.2. Further, the IC50 at Acetylcholinesterase [2] is 5.1 µM; on Cholinesterase [3], 0.24 µM.

In the case of `c1ccc(C[n+]2cccc(Cn3c4c(c5ccccc53)CCCC4)c2)cc1`, the Ratio IC50 in assay [1] is 126. Moreover, the results for the IC50 against Acetylcholinesterase [2] and on Cholinesterase [3] were 48.1 µM and 0.38 µM, respectively.
